Data from patent US8338420B1, “Treatment of Parkinson's disease and enhancement of dopamine signal using PDE 10 inhibitor” (Mitsubishi Tanabe Pharma Corporation, priority 2002, dated 2012).

Legend:
PDE4 = assay: PDE assay, PDE4 enzyme solution from dog lung; assay type: biochemical, mixed-breed dog; conditions: substrate about 4.8 nM [3H]-cAMP and 1 μM cAMP
Experimental: These fractions were collected and glycerol was added thereto to become 50%, and the mixture was stored at −20° C.

PDE1 = assay: PDE assay, PDE1 enzyme solution from rat ventricle; assay type: biochemical, SD rat; conditions: substrate about 12 nM [3H]-cGMP and 1 μM cGMP
Experimental: Ventricle was excised from SD rat anesthetized with sodium pentobarbital (Nihon SLC, about 300 g), and washed with 100 ml of ice-cold saline 3 times. After the tissues were cut in approximately 1 g, it was frozen by liquid nitrogen, and stored at −80° C.
To about 5 g of this tissue sample was added 16 ml of an ice-cold homogenization buffer I, and the resultant mixture was homogenized by Polytron homogenizer for 3 minutes. The homogenate was centrifuged at 8000 rpm, at 4° C. for 20 minutes, and the obtained supernatant was further centrifuged by an ultracentrifuge at 50000 rpm, at 4° C. for 60 minutes. The resultant supernatant was stored at 4° C. […]
Subsequently, the eluted fractions were used as an enzyme solution for PDE assay. […] (final concentration of 1 mM) or calcium chloride (final concentration of 2 mM) and calmodulin (40 unit s/ml), and cGMP-hydrolyzing activity was measured.
For these PDE1 containing fractions, cGMP hydrolyzing activities were analyzed in the presence of E4021 (100 nM), PDE5 specific inhibitor, it was shown that the cGMP-hydrolyzing activities in these fractions were not inhibited by E4021. […]
Further, in the presence or absence of unlabeled cGMP, cAMP-PDE activities were measured for each of the fractions. […]
Still further, in the presence of rolipram (10 μm), the PDE4 specific inhibitor, cAMP hydrolyzing activities were measured for each of the fractions. […]

[1] = test system: rat 6-hydroxydopamine model; assay: Rat 6-hydroxydopamine model, L-dopa induced rotational behaviors; assay type: in vivo, SD rat; conditions: 1 mg/kg, i.v.; L-dopa 10 mg/kg i.p. + benserazide 2.5 mg/kg i.p.
Experimental: Preparation of rat 6-hydroxydopamine model According to the method described in the literature (Koga et al., European Journal of Pharmacology, vol. 408, pp. 249-255, 2000), 6-hydroxydopamine (6-OHDA) was administered in the rat's brain, to cause lesion in the substantia nigra of the brain, to thereby cause motor disability. As the rats, male SD (Sprague Dawley) rats (about 9 to 10 week old) were used. To these rats was administered desipramine (available from Sigma) (25 mg/kg, i.p.). Desipramine was used after being dissolved in distilled water to be 25 mg/ml. […]
One week after administration of 6-OHDA, apomorphine was administered, and rotational behaviors were confirmed to appear due to the lesion of substantia nigra by 6-OHDA in one hemisphere. […] Turnings were counted in every 5-minute interval, until rotational behaviors disappeared or until an event was repeated twice in which the number of turnings became 5 or less during the 5-minute interval. […]
To the model rat prepared in the above (1) (2 weeks after administration of apomorphine), L-dopa and benserazide (dopa decarboxylase inhibitor which inhibits degradation of L-dopa) were administered, and numbers of tunings were measured. […]
L-dopa was administered 30 minutes after benserazide administration, and turnings were counted after L-dopa administration. […]

IC50 (PDE4): 160 nM
IC50 (PDE1): > 1000 nM
SMILES: COc1ccc(-c2cc(N3CCCC3)nc(/C=C/c3nc(-n4ccnc4)c4ccccc4n3)n2)cc1OC [Compound A, 2-{(E)-2-[4-(1-imidazolyl)-quinazolin-2-yl]}ethenyl-4-(3,4-dimethoxy)phenyl-6-(pyrrolidin-1-yl)pyrimidine]
L-dopa induced rotational behaviors, total number of turnings [1]: tended to increase
duration of L-dopa induced rotational behaviors [1]: significantly prolonged
